Results as given in patent US12065512B2, “Cyclic peptide and a medicament, external preparation and cosmetic comprising said cyclic peptide” (Igisu Co., Ltd., priority 2015, dated 2024).
Positions of bridges follow the written chain, without caps; N, C: chain ends. No end group written: not given here.

Tested on: nasal cavity
Test: Cyclic peptides with amino acid replacement: nasal effect (formulations A to E = 3, 15, 30, 100, 500 μg/ml in physiological saline, 0.1 ml)
Assay type: in vivo, human
Conditions: formulation C (30 μg/ml in physiological saline), once a day, 0.1 ml applied to each nasal cavity; subject with allergic rhinitis
Procedure: Next, cyclic peptides with some replaced amino acid were subjected to following examination in order to confirm their effect. The methods for preparing the above cyclic peptide and confirming amino acid sequence of the prepared peptide were same as the method for preparing the cyclic peptide as described above and Mass spectroscopy method.
9.3 Confirming Nasal Effect
The obtained cyclic peptide was prepared in physiological saline at 3, 15, 30, 100 or 500 μg/ml, and 0.1 ml each was applied to nasal cavity. Each of formulations A to E in the table indicates the concentration of the cyclic peptide at 3, 15, 30, 100 or 500 μg/ml, respectively. The absence of the effect upon the application of physiological saline without the peptide confirmed the effect was not a placebo effect.

## SEQ ID NO 34 (CFGRKMDRISSSSGVGC; disulfide 1-17)
  Itches after application: No irritating symptoms.
